# Measurements taken from US20050215635A1, “Diarylheptanoid compounds and uses thereof” (priority 2004, published 2005).
# Columns and labels:
# [1] = system: p44/42 MAPK phosphorylation; test: Western blotting of LPS induced phosphorylation of p44/42 MAPK in RAW 264.7 cells; assay type: cell-based, mouse; conditions: HMP 25 μM + LPS (0.5 μg/ml), RAW 264.7, 30 min (not at 60 min)
# Procedure: FIG. 5A and 5B. Effect of HMP on LPS induced MAPKs activation. FIG. 5A, Total protein lysates of RAW 264.7 were prepared after treatment with HMP and/or LPS for indicated times and 40 μg of protein lysates were resolved and probed for phosphorylated (pp44/42 and pp38) and basal p44/42 and p38, using specific monoclonal antibodies as described in material and methods. FIG. 5B, Integrated density of phosphorylated p44/42 (pp44/42) as measured by Scion software. This experiment was repeated 4 times with similar results.
# (§1) At indicated time points, cells were rapidly washed with ice-cold PBS and solubilized in cold lysis buffer containing 10 mM Tris-base, 5 mM EDTA, 50 mM NaCl, 1% Triton X-100, 5 mM phenylmethylsulfonyl fluoride (PMSF), 2 mM sodium orthovanadate, 10 μg/ml leupeptin, 25 μg/ml aprotinin, 1 mM sodium pyrophosphate, and 20% glycerol. […]
# (§2) Equal amount of protein (40 μg) from each sample was loaded on SDS-polyacrylamide electrophoresis gel (8 and 10% separating gels for iNOS and p42/44^MAPK, respectively) and resolved for 1.5 h at 120 V in buffer containing 95 mM Tris-HCl, 960 mM glycine, and 0.5% SDS. […] Specific bands were detected by enhanced chemiluminescence's detection system (Amersham-Pharmacia biotech, NJ, USA) and the membrane was exposed to X-ray film. […]
# [2] = system: Mouse macrophage cell line RAW 264.7; test: MTT assay, RAW 264.7 cell viability; assay type: cell-based; conditions: HMP 6.25 μM-25 μM, 48 hrs
# Procedure: MTT is a pale yellow substrate that is reduced by living cells to yield a dark blue formazan product. […] Mouse macrophage cell line RAW 264.7 were cultured in 96 well flat bottom plate at concentration of 0.25 million/ml and after 12 hrs of preconditioning, various concentrations of diarylheptanoid (HMP) was added and further cultured for 48 hrs. Thereafter, culture medium was aspirated and 100 μl of MTT dye (1 mg/ml in PBS) was added and further incubated for 4 hrs at 37° C. The formazan crystals made due to dye reduction by viable cells were dissolved using acidified isopropanol (0.1 N HCl). Index of cell viability was calculated by measuring the optical density of color produced by MTT dye reduction at 570 nm.
# [3] = system: NF-κB DNA binding activity; test: Electrophoresis mobility shift assay (EMSA) of NF-κB DNA binding in RAW 264.7 nuclear extracts; assay type: cell-based, mouse; conditions: RAW 264.7, 2 hrs
# Procedure: FIG. 6A and 6B. Inhibition of LPS induced NF-κB activation by HMP. 6A: Nuclear protein lysates of RAW 264.7 cells were prepared after 2 hrs of treatment with LPS (0.5 μg/ml) either alone or with different concentration of HMP. Six μg of nuclear protein was used in DNA binding assay and the total binding reaction was resolved in 5% nondenaturing polyacrylamide gel. The retarded bands are indicated with arrow. Data represent one of three experiments performed separately with similar results. Lane 1, control; 2, LPS (0.5 μg/ml); 3, LPS+HMP (25 μM); 4, HMP (12.5 μM). NS, non specific. 6B: Plot of integrated signal density for each lane in FIG. 6A.
# RAW 264.7 cells were treated with either LPS (0.5 μg/ml) alone or with various concentration of HMP for 2 hrs. Thereafter, nuclear extracts were prepared using a modified method (Lahti et al., 2000 294:1188-1194). Briefly, cells were washed once with PBS (pH 7.2) and were suspended in hypotonic buffer A [10 mM HEPES (pH 7.6), 10 mM KCl, 0.1 mM EDTA, 1 mM DTT, 0.5 mM PMSF] for 10 min on ice, and vortexed for 10 sec. Nuclei were pelleted by centrifugation at 12,000 g for 5 minutes. […] Mobility shift of DNA due to binding of NF-κB complex was detected by Phosphor Imager-445 SI (Molecular Dynamics, Amarsham-Pharmacia, NJ, USA).
# iNOS protein expression = test: Western blotting of iNOS protein expression in RAW 264.7 cells; assay type: cell-based, mouse; conditions: HMP 12.5 and 25 μM + LPS (0.5 μg/ml), RAW 264.7, 18 hrs
# Procedure: FIG. 3. Inhibition of LPS induced iNOS and COX-2 protein expression by HMP. RAW 264.7 cells were treated with various concentrations of HMP and/or LPS (0.5 μg/ml) for 18 h. Total-cell lysate (40 μg) was resolved in 8-10% SDS-PAGE then transferred to PVDF membrane and detected with specific antibodies as described in Section 6. This experiment was repeated 4 times with similar observations. Lane-1, Control (without any treatment); 2, LPS (0.5 μg/ml); 3, LPS and HMP 25 μM; 4, LPS and HMP-12.5 μM.
# as §1, §2
smiles,measurement,setting,value
"COc1cc(CC/C=C/C(=O)CCc2ccccc2)ccc1O [AO-4, 7-(4″-hydroxy-3″-methoxyphenyl)-1-phenyl-hept-4-en-3-one]",LPS-induced phosphorylation of p44/42 MAPK (in words),[1],markedly inhibited
same,"cytotoxic effect on RAW 264.7 cells (cell viability, MTT)",[2],almost no cytotoxic effect
same,"LPS induced NF-κB DNA binding activity (EMSA, in words)",[3]; HMP 25 μM + LPS (0.5 μg/ml),marked inhibition
same,"relative levels of NF-κB DNA binding activity (EMSA, in words)",[3]; HMP 12.5 and 25 μM + LPS (0.5 μg/ml),less in comparison to LPS alone
same,"LPS induced iNOS protein expression (Western blot, in words)",iNOS protein expression,markedly inhibited
